Experimental data as given in US20050219340A1, “Actinic ray curable ink composition, image forming method and ink-jet recording apparatus using the same” (KONICA MINOLTA MEDICAL & GRAPHIC, INC., priority 2004, published 2005).

Assay: physchem
Procedure: P(O/W), as described in the present invention, refers to the partition coefficient between 1-octanol and water and is as defined for the value which is treated as information to judge accumulativeness in the bodies of fish and shellfish, in the course of registration of new compounds, to conform in the Law Concerning Examination and Regulation of Manufacture etc. of Chemical Substances (a Japanese law), and is represented by the formula below; P(O/W)=CO/CW wherein CO represents the concentration (in mg/L) of a compound in the 1-octanol layer, while CW represents the concentration (in mg/L) of the above compound in the water layer.

Row | logP | SMILES
1 | 0.15 | COc1ccc([S+](c2ccc(OC)cc2)c2ccc(Oc3ccc(C)cc3)cc2)cc1 [Compound S-4]
2 | 0.12 | COc1ccc([S+](c2ccc(C)cc2)c2ccc(OC)cc2)cc1 [Compound S-2]
3 | 0.12 | COc1ccc([S+](c2ccc(C)cc2)c2ccc(C)cc2)cc1 [Compound S-3]
4 | 0.1 | COc1ccc([S+](c2ccc(OC)cc2)c2ccc(OC)cc2)cc1 [Compound S-1]
